Test results taken from patent US7939554B2, “Protein phosphatase inhibitors” (The Cleveland Clinic Foundation, priority 2006, dated 2011).

Key:
intracellular SHP-1 = target: T1, intracellular SHP-1 (Homo sapiens, UniProt P29350); test: tyrosine phosphorylation of SHP-1 substrates in Jurkat cells (SDS-PAGE/Western blotting, densitometry); type: cell-based; details: for level capable of inhibiting intracellular SHP-1: Jurkat T cells
T1 construct: endogenous in cells; host or cells: Jurkat
Protocol: (§1) Jurkat cells in culture medium (3×10^6 cells/ml, 1 ml/tube) were treated with agents for designated times at room temperature. After brief centrifuging in a microfuge (4,000 rpm, 2 min), the cell pellet was lysed on ice for 30 min in 1001 of cold lysis buffer (1% NP40, 50 mM Tris, pH 7.4, 150 mM NaCl, 20 mM NaF, 0.2 mM Na3VO4 and 1 mM Na3MO4) containing a cocktail of proteinase inhibitors (Sigma, 1 tablet/10 ml). The lysates were cleared by centrifuging (14,000 rpm, 10 min) in a microfuge at 4° C. to remove insoluble parts, mixed with equal volume of 2×SDS-PAGE sample buffer, boiled for 5 min and analyzed (˜3×10^5 cells/well) by SDS-PAGE/Western blotting. Relative intensities of phosphotyrosine bands were quantified through densitometry analysis.
as §1, with “100 μl” for “1001”, “blotting as described previously (23, 24).” for “blotting.”
as §1, with “100 μl” for “1001”, “blotting as described previously (17, 18).” for “blotting.”

PTPase CD45 = target: T2, PTPase CD45 (Homo sapiens, UniProt P08575); test: pLck-pY505 levels in L5-treated Jurkat cells; type: cell-based; details: FIG. 4D
T2 construct: endogenous in cells; host or cells: Jurkat
T2 sequence (P08575 26-1306): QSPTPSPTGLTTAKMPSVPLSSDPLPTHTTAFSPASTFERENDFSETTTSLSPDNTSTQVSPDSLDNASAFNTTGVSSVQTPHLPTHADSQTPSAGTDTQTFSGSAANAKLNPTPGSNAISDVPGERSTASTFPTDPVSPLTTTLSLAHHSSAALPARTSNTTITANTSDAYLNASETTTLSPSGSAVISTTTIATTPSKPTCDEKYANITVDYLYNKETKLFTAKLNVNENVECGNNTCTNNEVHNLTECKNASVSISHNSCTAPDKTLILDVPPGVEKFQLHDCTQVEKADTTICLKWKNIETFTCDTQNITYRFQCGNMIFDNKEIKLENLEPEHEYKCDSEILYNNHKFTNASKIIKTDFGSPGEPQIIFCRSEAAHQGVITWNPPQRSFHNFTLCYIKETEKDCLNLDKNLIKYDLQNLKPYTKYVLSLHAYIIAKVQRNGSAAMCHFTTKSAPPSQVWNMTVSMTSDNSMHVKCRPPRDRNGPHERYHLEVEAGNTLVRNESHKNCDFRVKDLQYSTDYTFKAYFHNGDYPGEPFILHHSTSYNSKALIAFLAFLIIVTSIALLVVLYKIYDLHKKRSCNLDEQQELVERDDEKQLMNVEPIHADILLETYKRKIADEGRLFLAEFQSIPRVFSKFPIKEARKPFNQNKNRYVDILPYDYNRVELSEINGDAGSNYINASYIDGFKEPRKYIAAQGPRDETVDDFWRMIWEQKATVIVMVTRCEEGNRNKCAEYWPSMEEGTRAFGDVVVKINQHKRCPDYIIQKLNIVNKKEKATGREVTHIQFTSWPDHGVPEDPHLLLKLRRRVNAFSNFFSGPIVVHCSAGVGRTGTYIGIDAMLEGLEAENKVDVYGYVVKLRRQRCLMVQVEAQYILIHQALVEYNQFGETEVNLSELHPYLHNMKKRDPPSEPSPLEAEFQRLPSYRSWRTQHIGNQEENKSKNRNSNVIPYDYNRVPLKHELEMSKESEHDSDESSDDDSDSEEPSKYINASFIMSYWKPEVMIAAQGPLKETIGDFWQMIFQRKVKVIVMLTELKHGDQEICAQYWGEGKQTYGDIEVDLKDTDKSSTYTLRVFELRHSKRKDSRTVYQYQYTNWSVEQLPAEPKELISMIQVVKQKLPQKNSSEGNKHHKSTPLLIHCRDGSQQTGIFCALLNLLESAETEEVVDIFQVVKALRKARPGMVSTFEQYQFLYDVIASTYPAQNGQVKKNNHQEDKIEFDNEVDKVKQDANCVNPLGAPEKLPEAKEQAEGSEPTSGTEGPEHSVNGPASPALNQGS
Protocol: as §1
To assess the effects of L5 on other phosphatases, pERK1/2 and pLck-pY505 in L5-treated Jurkat cells were quantified. SHP-2 is known to be a positive mediator of pERK1/2 whereas pLck-pY505 is dephosphorylated by PTPase CD45.

[1] = test system: spleen pLck and IFNγ+ cells; test: in vivo induction of spleen pLck and IFNγ+ cells in mice; parameters: species or system mouse
Protocol: Spleens were harvested one hour post-treatment on day 4 and processed into splenocytes, which were used for assessing pLck levels by SDS-PAGE/Western blotting and for quantification of IFNγ+ cells by ELISPOT assays. Mice were also treated with L5 (˜10 mg/kg body weight, daily, s. c., n=2) to evaluate the toxicity of the compounds in vivo.

[2] = ~3 mg/kg body weight, s.c., daily, 4 days

T1 sequence (P29350 whole entry): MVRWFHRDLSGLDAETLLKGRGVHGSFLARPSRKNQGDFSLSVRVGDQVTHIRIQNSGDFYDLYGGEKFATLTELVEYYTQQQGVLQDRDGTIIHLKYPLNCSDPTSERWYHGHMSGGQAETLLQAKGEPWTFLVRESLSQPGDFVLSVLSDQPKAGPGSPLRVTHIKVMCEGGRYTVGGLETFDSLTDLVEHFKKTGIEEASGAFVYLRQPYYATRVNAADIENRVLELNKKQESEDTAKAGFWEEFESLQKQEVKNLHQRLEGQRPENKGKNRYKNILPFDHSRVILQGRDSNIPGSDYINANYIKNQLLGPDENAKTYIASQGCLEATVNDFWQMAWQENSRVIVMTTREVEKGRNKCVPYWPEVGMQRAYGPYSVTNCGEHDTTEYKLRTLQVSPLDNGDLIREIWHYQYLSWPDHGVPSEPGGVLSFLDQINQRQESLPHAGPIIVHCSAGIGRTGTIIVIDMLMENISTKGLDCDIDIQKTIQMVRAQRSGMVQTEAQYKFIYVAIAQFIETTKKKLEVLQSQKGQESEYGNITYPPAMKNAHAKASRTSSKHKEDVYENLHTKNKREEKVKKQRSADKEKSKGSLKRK

O=C1C=CC(=O)C(c2cc(Cl)ccc2Cl)=C1 [L5]
pLck-pY394 induction (intracellular SHP-1; 0.01 μg/ml, 10 min): 2-3 fold | pSlp76 level (intracellular SHP-1; 0.01, 0.1, 1 or 3 μg/ml): obviously increased | pZap70 level (intracellular SHP-1; 0.01, 0.1, 1 or 3 μg/ml): obviously increased | pLck-pY394 induction (intracellular SHP-1; 0.1, 1 or 3 μg/ml, 10 min): > 4 folds | dose effective in inducing pLck-pY394 (lowest / only effective dose) (intracellular SHP-1; 10 min treatment): 0.01 μg/ml | level capable of inhibiting intracellular SHP-1 (intracellular SHP-1): 10 ng/mL | level capable of inhibiting intracellular SHP-1 (intracellular SHP-1; molar equivalent): ~40 nM | pLAT level (intracellular SHP-1; L5-treated Jurkat cells): induced | potency relative to SSG (intracellular SHP-1; by weight): approximately 1,000 fold | potency relative to SSG (intracellular SHP-1; in equal molar ratios): ~350 fold | pLck-pY394 induction versus untreated control (intracellular SHP-1; lead compounds, 10 min, densitometry, FIG. 2): ~10 fold | effect on pLck-pY505 (PTPase CD45): little effects | effect on splenocyte pLck in treated mice ([1]; 1 mg/kg of body weight): minor effect | spleen IFNγ+ cells increase in treated mice [1, 2]: approximately 3 fold | splenocyte pLck increase in treated mice [1, 2]: ~3.3 fold
